Results from ChEMBL document CHEMBL1201862, “PubChem BioAssay data set” (2004).
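Exposure lasted 48 hours, with cells grown in 96-well plates and compounds tested at five concentrations. Here, GI50 denotes the concentration required for 50% inhibition of growth.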 Active and inactive are the calls of the source. Cut-off read from the data, not from the text of the source: active = GI50 up to about 1.1 µM and inactive = higher.

Legend:
Assay in all cases: NCI anticancer screen, dose series, 48 h
[1] = system: NCI-H23
[2] = system: ACHN
[3] = system: OVCAR-4
[4] = system: SNB-19
[5] = system: SR
[6] = system: CAKI-1
[7] = system: RXF 393
[8] = system: K562
[9] = system: IGROV-1
[10] = system: MOLT-4
[11] = system: TK-10
[12] = system: UACC-62
[13] = system: A549
[14] = system: LOX IMVI
[15] = system: 786-0
[16] = system: CCRF-CEM
[17] = system: M14
[18] = system: HCT-116

Row | Compound | GI50 [1] | GI50 [2] | GI50 [3] | GI50 [4] | GI50 [5] | GI50 [6] | GI50 [7] | GI50 [8] | GI50 [9] | GI50 [10] | GI50 [11] | GI50 [12] | GI50 [13] | GI50 [14] | GI50 [15] | GI50 [16] | GI50 [17] | GI50 [18]
1 | N#Cc1ccc(Cc2ccccn2)cc1Cl | > 100 µM (inactive) | > 100 µM (inactive) | > 100 µM (inactive) | > 100 µM (inactive) | > 100 µM (inactive) | > 100 µM (inactive) | > 100 µM (inactive) | > 100 µM (inactive) | > 100 µM (inactive) | > 100 µM (inactive) | > 100 µM (inactive) | > 100 µM (inactive) | > 100 µM (inactive) | > 100 µM (inactive) | > 100 µM (inactive) | > 100 µM (inactive) |  | 
2 | Cc1cc([N+](=O)[O-])c(C)c2c1[nH]c1ccc(O)cc12 | > 100 µM (inactive) | 99.8 µM (inactive) | > 100 µM (inactive) | > 100 µM (inactive) | 28.8 µM (inactive) | > 100 µM (inactive) |  | 45.8 µM (inactive) |  | 59.2 µM (inactive) | > 100 µM (inactive) |  | > 100 µM (inactive) | 61.5 µM (inactive) | 39.4 µM (inactive) | 23.4 µM (inactive) | > 100 µM (inactive) | > 100 µM (inactive)
3 | CCOC(=O)C12CCCC1(O)N(NC(N)=O)C(C)=C2C(=O)OC (configuration not stated) | > 100 µM (inactive) | > 100 µM (inactive) | > 100 µM (inactive) | > 100 µM (inactive) |  | > 100 µM (inactive) |  | > 100 µM (inactive) | > 100 µM (inactive) | > 100 µM (inactive) | > 100 µM (inactive) | > 100 µM (inactive) | > 100 µM (inactive) | > 100 µM (inactive) | > 100 µM (inactive) | > 100 µM (inactive) | > 100 µM (inactive) | > 100 µM (inactive)
4 | CCOC(=O)NC/C=C/COC1CCCCO1 (configuration not stated) |  | > 100 µM (inactive) | > 100 µM (inactive) | > 100 µM (inactive) | > 100 µM (inactive) | > 100 µM (inactive) | > 100 µM (inactive) | > 100 µM (inactive) | > 100 µM (inactive) | > 100 µM (inactive) | > 100 µM (inactive) | > 100 µM (inactive) | > 100 µM (inactive) |  | > 100 µM (inactive) | > 100 µM (inactive) | > 100 µM (inactive) | > 100 µM (inactive)
5 | COC(=O)c1ccc(C=C(C#N)C#N)cc1 | 19.4 µM (inactive) | 25 µM (inactive) | 20.6 µM (inactive) | 38.5 µM (inactive) |  | 30.7 µM (inactive) |  | 23.2 µM (inactive) | 28.4 µM (inactive) | 21.7 µM (inactive) | 27.9 µM (inactive) | 20.8 µM (inactive) | > 100 µM (inactive) | 21 µM (inactive) | 16.9 µM (inactive) | 21.5 µM (inactive) | 16.5 µM (inactive) | 17.1 µM (inactive)
6 | Nc1ccc2nc(Nc3ccc(F)cc3)cnc2c1 |  | > 100 µM (inactive) | > 100 µM (inactive) | > 100 µM (inactive) | 36.1 µM (inactive) | > 100 µM (inactive) |  | 81.5 µM (inactive) |  | 27.7 µM (inactive) | 87.3 µM (inactive) |  | > 100 µM (inactive) | > 100 µM (inactive) | > 100 µM (inactive) | 30.5 µM (inactive) | > 100 µM (inactive) | > 100 µM (inactive)
7 | O=C1[C@@H]2C3c4ccccc4C([C@@H]2C(=O)N1c1ccccc1)S3(=O)=O | > 100 µM (inactive) | > 100 µM (inactive) |  | 48.8 µM (inactive) | > 100 µM (inactive) |  | 38.1 µM (inactive) | 61.4 µM (inactive) | > 100 µM (inactive) | > 100 µM (inactive) | > 100 µM (inactive) | > 100 µM (inactive) |  | 47.2 µM (inactive) | 55.8 µM (inactive) | 32.1 µM (inactive) | > 100 µM (inactive) | > 100 µM (inactive)
8 | COC1=CC(=O)C2(C=C1OC)OC[C@H]1Oc3c(ccc4c3C=CC(C)(C)O4)C(=O)[C@H]12 (some centres not stated) | 23.7 µM (inactive) | 44.8 µM (inactive) |  | 47 µM (inactive) |  |  | 30.2 µM (inactive) | 36.8 µM (inactive) | 40.3 µM (inactive) | 27.4 µM (inactive) | 79.3 µM (inactive) | 47.1 µM (inactive) | 42.5 µM (inactive) | 78.9 µM (inactive) | 68.1 µM (inactive) | 28.1 µM (inactive) | 41.7 µM (inactive) | 28.4 µM (inactive)
9 | COc1ccc(/C=C2\C(=O)Nc3ccccc32)cc1OC | > 100 µM (inactive) | > 100 µM (inactive) | 97.3 µM (inactive) | 38.5 µM (inactive) |  | > 100 µM (inactive) | > 100 µM (inactive) | 44.7 µM (inactive) | > 100 µM (inactive) | > 100 µM (inactive) | > 100 µM (inactive) | > 100 µM (inactive) | > 100 µM (inactive) | 45.3 µM (inactive) | 33.1 µM (inactive) | > 100 µM (inactive) | > 100 µM (inactive) | > 100 µM (inactive)
10 | CC1=CCC23C(C1)OC(Br)(C=CC2(C)O)C3(C)C (configuration not stated) | > 100 µM (inactive) | > 100 µM (inactive) | > 100 µM (inactive) |  |  | > 100 µM (inactive) |  | > 100 µM (inactive) | > 100 µM (inactive) |  | > 100 µM (inactive) | > 100 µM (inactive) | > 100 µM (inactive) | > 100 µM (inactive) | > 100 µM (inactive) | > 100 µM (inactive) |  | > 100 µM (inactive)
11 | N#Cc1c(-c2ccccc2)c(-c2ccccc2)cc2c(=O)c3ccc(Cl)cc3[nH]c12 | > 100 µM (inactive) | > 100 µM (inactive) |  | > 100 µM (inactive) | > 100 µM (inactive) |  | > 100 µM (inactive) |  | > 100 µM (inactive) | > 100 µM (inactive) | > 100 µM (inactive) | > 100 µM (inactive) | > 100 µM (inactive) |  | > 100 µM (inactive) | > 100 µM (inactive) |  | > 100 µM (inactive)
12 | O=C1[C@@H]2C(c3ccccc3Br)=NO[C@@H]2C(=O)N1c1ccc(Cc2ccc(N3C(=O)[C@H]4C(c5ccccc5Br)=NO[C@H]4C3=O)cc2)cc1 | > 100 µM (inactive) | > 100 µM (inactive) | > 100 µM (inactive) |  |  | > 100 µM (inactive) | 50.2 µM (inactive) | > 100 µM (inactive) | > 100 µM (inactive) | > 100 µM (inactive) | > 100 µM (inactive) | > 100 µM (inactive) | > 100 µM (inactive) | > 100 µM (inactive) | > 100 µM (inactive) | > 100 µM (inactive) | > 100 µM (inactive) | 
13 | CCn1c(C)nc([N+](=O)[O-])c1Sc1ncc[nH]1 | 29.9 µM (inactive) | 48.1 µM (inactive) | 64.4 µM (inactive) | > 100 µM (inactive) | 23.3 µM (inactive) | 68.1 µM (inactive) |  | 31.4 µM (inactive) | 71 µM (inactive) | 16.7 µM (inactive) | > 100 µM (inactive) | 28.5 µM (inactive) | > 100 µM (inactive) | 14.7 µM (inactive) | > 100 µM (inactive) | 19.8 µM (inactive) | 32.4 µM (inactive) | 43.2 µM (inactive)
14 | COC(=O)c1cc2c(=O)n(C)c3ccccc3n2c1C(=O)OC | 40.7 µM (inactive) | 83.2 µM (inactive) | > 100 µM (inactive) | 34.7 µM (inactive) |  | 73.5 µM (inactive) | 36.2 µM (inactive) | > 100 µM (inactive) | 56.6 µM (inactive) | > 100 µM (inactive) | 25.6 µM (inactive) | > 100 µM (inactive) | 66.4 µM (inactive) | 45.2 µM (inactive) | 22.8 µM (inactive) | > 100 µM (inactive) | 47.9 µM (inactive) | 
15 | CC[C@H]1CC(=O)c2c(cc3c(c2O)C(=O)c2ccccc2C3=O)[C@@]1(C#N)C(=O)OC(C)(C)C | 3.24 µM (inactive) | 3.31 µM (inactive) |  | 3.79 µM (inactive) | 3.66 µM (inactive) |  | 5.2 µM (inactive) |  | 2.4 µM (inactive) | 2.33 µM (inactive) | 4.78 µM (inactive) | 4.35 µM (inactive) | 3.27 µM (inactive) | 3.54 µM (inactive) | 4.15 µM (inactive) |  | 3.65 µM (inactive) | 2.7 µM (inactive)
16 | CN(C)CCNC(=O)c1cc2ccccc2c2nc3ccccc3nc12 | 1.17 µM (inactive) | 0.407 µM (active) | 0.792 µM (active) | 1.43 µM (inactive) | 0.163 µM (active) | 2.67 µM (inactive) | 1.02 µM (active) | 0.363 µM (active) | 1.45 µM (inactive) | 0.153 µM (active) | 1.23 µM (inactive) | 2 µM (inactive) | 0.977 µM (active) | 0.413 µM (active) | 2.43 µM (inactive) |  | 1.75 µM (inactive) | 0.373 µM (active)
17 | C=CCC12CCC(=O)[C@@]1(C)CC=C(O)C2=O (some centres not stated) |  | > 100 µM (inactive) | > 100 µM (inactive) | > 100 µM (inactive) | > 100 µM (inactive) | > 100 µM (inactive) | > 100 µM (inactive) |  | > 100 µM (inactive) | > 100 µM (inactive) | > 100 µM (inactive) | > 100 µM (inactive) | > 100 µM (inactive) | > 100 µM (inactive) | > 100 µM (inactive) | > 100 µM (inactive) | > 100 µM (inactive) | > 100 µM (inactive)
18 | CC(=O)OC1CC2CCN3C(=O)c4cc5c(cc4[C@H](C1OC(C)=O)C23)OCO5 (some centres not stated) | > 100 µM (inactive) | > 100 µM (inactive) |  | > 100 µM (inactive) | > 100 µM (inactive) |  | > 100 µM (inactive) | > 100 µM (inactive) | > 100 µM (inactive) | > 100 µM (inactive) | > 100 µM (inactive) | > 100 µM (inactive) | > 100 µM (inactive) | > 100 µM (inactive) | > 100 µM (inactive) | > 100 µM (inactive) | > 100 µM (inactive) | > 100 µM (inactive)
